Measurements taken from ChEMBL document CHEMBL1649185, “Antibacterial activity of ultrashort cationic lipo-beta-peptides” (2009).
In brackets after ≈: the same amount, converted by molar mass. Square brackets hold non-standard residues; d marks the D form. Peptide text beside a SMILES is read from it. * marks the point of attachment. Palmitoyl = CCCCCCCCCCCCCCCC(=O)*; Lauroyl = CCCCCCCCCCCC(=O)*

Key:
Assay type in all cases: functional
[1] = system: Stenotrophomonas maltophilia; assay: Antimicrobial activity against Stenotrophomonas maltophilia CAN-ICU 62584 […]
[2] = system: Pseudomonas aeruginosa; assay: Antimicrobial activity against Pseudomonas aeruginosa CAN-ICU 62308 […]
[3] = system: Staphylococcus aureus; assay: Antimicrobial activity against Staphylococcus aureus ATCC 29213 […]
[4] = system: Staphylococcus aureus; assay: Antimicrobial activity against methicillin-resistant Staphylococcus aureus ATCC 33592 […]
[5] = system: Staphylococcus epidermidis; assay: Antimicrobial activity against methicillin-resistant Staphylococcus epidermidis CAN-ICU 61589 […]
[6] = system: Staphylococcus epidermidis; assay: Antimicrobial activity against Staphylococcus epidermidis ATCC 14990 […]
[7] = system: Escherichia coli; assay: Antimicrobial activity against Escherichia coli CAN-ICU 61714 […]
[8] = system: Acinetobacter baumannii; assay: Antimicrobial activity against Acinetobacter baumannii CAN-ICU 63169 by […]
[9] = system: Escherichia coli; assay: Antimicrobial activity against Escherichia coli CAN-ICU 63074 […]
[10] = system: Enterococcus faecalis; assay: Antimicrobial activity against Enterococcus faecalis ATCC 29212 […]
[11] = system: Klebsiella pneumoniae; assay: Antimicrobial activity against Klebsiella pneumoniae ATCC 13883 […]
[12] = system: Escherichia coli; assay: Antimicrobial activity against Escherichia coli ATCC 25922 by […]
[13] = system: Pseudomonas aeruginosa; assay: Antimicrobial activity against Pseudomonas aeruginosa ATCC 27853 […]
[14] = system: Streptococcus pneumoniae; assay: Antimicrobial activity against Streptococcus pneumoniae ATCC 49619 […]
[15] = system: Enterococcus faecium; assay: Antimicrobial activity against Enterococcus faecium ATCC 27270 […]

CCCCCCCCCCCCCCCC(=O)N[C@@H](CCCCN)C(=O)N[C@@H](CCCCN)C(=O)N[C@H](CCCCN)C(=O)N[C@@H](CCCCN)C(=O)O (Palmitoyl-KK[dK]K-OH)
MIC [1]: 256 µg/mL (≈ 333 µM)
MIC [2]: 256 µg/mL (≈ 333 µM)
MIC [3]: 16 µg/mL (≈ 20.8 µM)
MIC [4]: 16 µg/mL (≈ 20.8 µM)
MIC [5]: 8 µg/mL (≈ 10.4 µM)
MIC [6]: 4 µg/mL (≈ 5.2 µM)
MIC [7]: 32 µg/mL (≈ 41.6 µM)
MIC [8]: 256 µg/mL (≈ 333 µM)
MIC [9]: 32 µg/mL (≈ 41.6 µM)
MIC [10]: 32 µg/mL (≈ 41.6 µM)
MIC [11]: 256 µg/mL (≈ 333 µM)
MIC [12]: 32 µg/mL (≈ 41.6 µM)
MIC [13]: 32 µg/mL (≈ 41.6 µM)
MIC [14]: > 32 µg/mL
MIC [15]: 16 µg/mL (≈ 20.8 µM)

CCCCCCCCCCCCCCCC(=O)N[C@@H](CCCCN)C(=O)NCC(=O)NCC(=O)N[C@H](CCCCN)C(=O)O
MIC [1]: 64 µg/mL (≈ 102 µM)
MIC [2]: 64 µg/mL (≈ 102 µM)
MIC [3]: 16 µg/mL (≈ 25.5 µM)
MIC [4]: 16 µg/mL (≈ 25.5 µM)
MIC [5]: 8 µg/mL (≈ 12.8 µM)
MIC [6]: 8 µg/mL (≈ 12.8 µM)
MIC [7]: 64 µg/mL (≈ 102 µM)
MIC [8]: 64 µg/mL (≈ 102 µM)
MIC [9]: 16 µg/mL (≈ 25.5 µM)
MIC [10]: 16 µg/mL (≈ 25.5 µM)
MIC [11]: 64 µg/mL (≈ 102 µM)
MIC [12]: 16 µg/mL (≈ 25.5 µM)
MIC [13]: 64 µg/mL (≈ 102 µM)
MIC [14]: 128 µg/mL (≈ 204 µM)
MIC [15]: 16 µg/mL (≈ 25.5 µM)

CCCCCCCCCCCCCCCC(=O)N[C@H](CCCN)CC(=O)NCC(=O)NCC(=O)N[C@H](CCCN)CC(=O)O
MIC [1]: 256 µg/mL (≈ 408 µM)
MIC [2]: > 64 µg/mL
MIC [3]: 16 µg/mL (≈ 25.5 µM)
MIC [4]: 32 µg/mL (≈ 51 µM)
MIC [5]: 16 µg/mL (≈ 25.5 µM)
MIC [6]: 8 µg/mL (≈ 12.8 µM)
MIC [7]: 32 µg/mL (≈ 51 µM)
MIC [8]: 128 µg/mL (≈ 204 µM)
MIC [9]: 32 µg/mL (≈ 51 µM)
MIC [10]: 32 µg/mL (≈ 51 µM)
MIC [11]: 128 µg/mL (≈ 204 µM)
MIC [12]: 32 µg/mL (≈ 51 µM)
MIC [13]: 64 µg/mL (≈ 102 µM)
MIC [14]: 128 µg/mL (≈ 204 µM)
MIC [15]: 32 µg/mL (≈ 51 µM)

CCCCCCCCCCCC(=O)N[C@H](CCCN)CC(=O)N[C@@H](CC(=O)N[C@@H](CC(=O)N[C@H](CCCN)CC(=O)O)C(C)C)C(C)C
MIC [1]: 256 µg/mL (≈ 375 µM)
MIC [2]: 128 µg/mL (≈ 187 µM)
MIC [3]: 32 µg/mL (≈ 46.9 µM)
MIC [4]: 32 µg/mL (≈ 46.9 µM)
MIC [5]: 32 µg/mL (≈ 46.9 µM)
MIC [6]: 16 µg/mL (≈ 23.4 µM)
MIC [7]: 64 µg/mL (≈ 93.7 µM)
MIC [8]: > 128 µg/mL
MIC [9]: 64 µg/mL (≈ 93.7 µM)
MIC [10]: 64 µg/mL (≈ 93.7 µM)
MIC [11]: 256 µg/mL (≈ 375 µM)
MIC [12]: 64 µg/mL (≈ 93.7 µM)
MIC [13]: 128 µg/mL (≈ 187 µM)
MIC [14]: 128 µg/mL (≈ 187 µM)
MIC [15]: 32 µg/mL (≈ 46.9 µM)

CCCCCCCCCCCCCCCC(=O)N[C@@H](CCCCN)C(=O)N[C@@H](C)C(=O)N[C@@H](C)C(=O)N[C@@H](CCCCN)C(=O)O (Palmitoyl-KAAK-OH)
MIC [1]: 128 µg/mL (≈ 195 µM)
MIC [2]: 64 µg/mL (≈ 97.7 µM)
MIC [3]: 16 µg/mL (≈ 24.4 µM)
MIC [4]: 16 µg/mL (≈ 24.4 µM)
MIC [5]: 8 µg/mL (≈ 12.2 µM)
MIC [6]: 8 µg/mL (≈ 12.2 µM)
MIC [7]: 16 µg/mL (≈ 24.4 µM)
MIC [8]: 128 µg/mL (≈ 195 µM)
MIC [9]: 16 µg/mL (≈ 24.4 µM)
MIC [10]: 16 µg/mL (≈ 24.4 µM)
MIC [11]: 128 µg/mL (≈ 195 µM)
MIC [12]: 16 µg/mL (≈ 24.4 µM)
MIC [13]: 32 µg/mL (≈ 48.9 µM)
MIC [14]: 128 µg/mL (≈ 195 µM)
MIC [15]: 8 µg/mL (≈ 12.2 µM)

CCCCCCCCCCCC(=O)N[C@@H](CCCCN)C(=O)N[C@@H](CC(C)C)C(=O)N[C@H](CC(C)C)C(=O)N[C@@H](CCCCN)C(=O)O (Lauroyl-KL[dL]K-OH)
MIC [1]: > 256 µg/mL
MIC [2]: 128 µg/mL (≈ 187 µM)
MIC [3]: 16 µg/mL (≈ 23.4 µM)
MIC [4]: 16 µg/mL (≈ 23.4 µM)
MIC [5]: 16 µg/mL (≈ 23.4 µM)
MIC [6]: 8 µg/mL (≈ 11.7 µM)
MIC [7]: 64 µg/mL (≈ 93.7 µM)
MIC [8]: > 256 µg/mL
MIC [9]: 64 µg/mL (≈ 93.7 µM)
MIC [10]: 32 µg/mL (≈ 46.9 µM)
MIC [11]: > 64 µg/mL
MIC [12]: 64 µg/mL (≈ 93.7 µM)
MIC [13]: 128 µg/mL (≈ 187 µM)
MIC [14]: 64 µg/mL (≈ 93.7 µM)
MIC [15]: 32 µg/mL (≈ 46.9 µM)
